Assay results taken from ChEMBL document CHEMBL1131589 (J Med Chem, 1998).

Biological target: Cannabinoid receptor 1 (Rattus norvegicus, UniProt P20272)
Experiment: Displacement of [3H]CP-55940 binding to Cannabinoid receptor 1 in rat brain membranes
Assay type: cell membranes

Sequence of Cannabinoid receptor 1 (P20272 whole entry): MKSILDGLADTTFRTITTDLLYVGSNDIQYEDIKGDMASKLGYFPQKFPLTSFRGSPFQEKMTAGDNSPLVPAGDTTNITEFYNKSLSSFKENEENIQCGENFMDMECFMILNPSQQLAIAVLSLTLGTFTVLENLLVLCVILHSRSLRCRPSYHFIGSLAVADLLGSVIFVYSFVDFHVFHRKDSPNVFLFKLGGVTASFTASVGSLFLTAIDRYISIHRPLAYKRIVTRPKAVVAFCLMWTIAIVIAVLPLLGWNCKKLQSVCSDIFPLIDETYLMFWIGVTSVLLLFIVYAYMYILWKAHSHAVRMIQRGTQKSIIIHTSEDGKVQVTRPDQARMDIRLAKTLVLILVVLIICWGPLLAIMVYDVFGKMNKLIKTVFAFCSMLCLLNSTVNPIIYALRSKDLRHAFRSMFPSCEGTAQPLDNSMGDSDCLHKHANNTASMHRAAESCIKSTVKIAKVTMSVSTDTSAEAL

SMILES | Ki [pM]
CCCCCCC(C)(C)c1cc(O)c2c(c1)OC(C)(C)[C@@H]1CC=C(CO)C[C@@H]21 | 230
CCCCCCC(C)(C)c1ccc([C@H]2C[C@@H](O)C[C@H]3CC[C@@H](CO)C[C@@H]32)c(O)c1 | 110
CCCCCCC(C)(C)c1cc(O)c2c(c1)OC(C)(C)[C@H]1CC=C(CO)C[C@H]21 [DEXANABINOL] | 360000
